“And” between values parts separate entries of the source, which are not always exact repeats. Identical values can stand only once. Each block holds one molecule with its values, some of them ahead of it.
Assays:
smad2 = conditions: versus SB431 542; cited from earlier work
human and mouse ESC = conditions: cited from earlier work
Notch pathway = test: Hepatoblast co-culture with OP9 in presence of Notch antagonist GSI; format: cell-based, human
Procedure: RT-qPCR-based expression analysis of ALB and CK19 in the hepatoblast-derived cells following co-culture with OP9 in media supplemented with HGF (20 ng/ml), EGF (50 ng/ml), and TGFβ1 (5 ng/ml) in the presence or absence of the gamma-secretase inhibitor (GSI), an antagonist of the Notch pathway. Cells were harvested and analyzed at days 30, 33, and 36 of culture.
FIG. 15B is an RT-qPCR based expression analysis of the Notch target genes HES1, HES5 and HEY1 in hepatoblast-derived cells following culture with or without OP9. Cells were assayed at day 36 of culture. […] This value was set as 1.
To investigate the differentiation of cholangiocyte-like cells, H9-derived day 27 hepatic progenitors were co-cultured with OP 9 cells (Notch signaling donor) in the presence of HGF 20 ng/ml and EGF 50 ng/ml. The H9-derived day 27 hepatic progenitors were derived as in Example 1. When the hepatic progenitor cells received Notch signaling activation from OP-9 cells, the albumin positive cells were completely diminished and turned into CK19 positive cells with an organized branching appearance (FIG. 10a, b).
(§1) To investigate the effect of Notch signaling on cholangiocyte development, we co-cultured the hepatoblast population (day 25) with OP9 stromal cells that are known to express different Notch ligands including Jagged-1^4,5. […] To overcome this problem, we generated 3D aggregates from the day 25 monolayer cells and cultured them on the OP9 stromal cells.
(FIG. 22) Aggregates derived from both lines generated branched structures consisting of CK19^+ALB cells following co-culture with the OP9 stromal cells. As observed with the H9-derived populations, the downregulation of ALB expression and the development of these structures were NOTCH dependent events.

Notch signaling = test: 3D gel culture of chimeric hepatoblast/OP9 aggregates in presence of GSI; format: cell-based, human; conditions: 3D collagen/Matrigel gel
Procedure: H9-derived day 25 hepatoblast were mixed (aggregated) with OP9 stromal cells at a ratio of 4:1, in low cluster culture dishes for 48 hours. The chimeric aggregates were embedded in a mixture of type 1 collagen (1.2 mg/ml) and Matrigel (40%) to establish a 3D gel culture. The cultures were maintained over 2 weeks in the media containing of HGF, EGF and TGFβ1 in the presence or absence of GSI.
FIG. 16C is an RT-qPCR based expression analyses of pooled structures that developed in the 3D gels. The cultures were harvested at day 44 and the cells analyzed for expression of genes indicative of the hepatocyte (ALB, AFP and CYP3A7) and cholangiocyte (CK19, Sox9 and CFTR) lineages.
To determine if the branching observed in the OP9 co-cultures is indicative of the initial stages of bile duct development, we next established a culture system to promote the growth of 3D cellular structures. With this approach, chimeric aggregates consisting of day 25 hESC-derived cells and OP9 stromal cells (GFP^+) were cultured in a media mixture consisting of 1.2 mg/ml collagen, 40% Matrigel and HGF, EGF and TGFβ1 (FIG. 23a). Within 2 weeks of culture in these conditions, the aggregates underwent dramatic morphological changes and formed either tubular structures, hollow cysts or a mixture of both (FIG. 16a,b). The cysts were the most abundant structures in these cultures (FIG. 16b). […] The cells in the ducts also expressed the Cystic fibrosis transmembrane conductance regulator (CFTR), a transmembrane channel that is first expressed in the adult biliary tract. As with ZO-1, the CFTR protein was detected predominantly on the apical side of the duct-like structure. Western blot analyses confirmed the presence of the protein in the population generated from the chimeric aggregates (FIG. 23D). […] The lack of hepatic markers, including ALB, AFP and CYP3A7 and the upregulation of expression the cholangiocyte markers CK19, SOX9 and CFTR in these structures was confirmed by RT-qPCR analyses (FIG. 16c). […]

day 44 aggregates = test: CYP expression in day 44 aggregates with Wnt and MEK/Erk inhibition plus cAMP agonist; format: cell-based, human; conditions: together with cAMP, relative to adult liver
CYP1A2 = target: T1, CYP1A2 (Homo sapiens, UniProt P05177); test: CYP1A2 activity, phenacetin metabolism by HPLC
T1 sequence (P05177 1-516): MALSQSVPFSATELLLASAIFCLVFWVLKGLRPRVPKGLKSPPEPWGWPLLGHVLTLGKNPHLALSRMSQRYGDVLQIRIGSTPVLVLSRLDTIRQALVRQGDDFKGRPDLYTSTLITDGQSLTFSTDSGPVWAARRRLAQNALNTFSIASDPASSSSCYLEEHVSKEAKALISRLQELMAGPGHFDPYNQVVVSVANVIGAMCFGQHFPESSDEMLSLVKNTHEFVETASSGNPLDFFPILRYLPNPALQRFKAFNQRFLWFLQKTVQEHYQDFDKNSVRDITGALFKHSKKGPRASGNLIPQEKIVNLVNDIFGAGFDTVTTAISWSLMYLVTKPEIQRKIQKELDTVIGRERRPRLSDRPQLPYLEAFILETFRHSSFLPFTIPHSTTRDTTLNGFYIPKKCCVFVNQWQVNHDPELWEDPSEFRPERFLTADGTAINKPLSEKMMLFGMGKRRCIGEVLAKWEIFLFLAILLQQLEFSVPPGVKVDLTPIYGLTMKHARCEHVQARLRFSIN

[1] = test system: hPSC-derived hepatoblast aggregates; test: Growth factor addition to hepatoblast aggregates co-cultured on OP9 stroma; format: cell-based, human; conditions: for development of CK19+ clusters: OP9 co-culture
Source text: as §1

hepatic aggregates = test: Culture of hepatic aggregates at cAMP stage, HGF and OSM; format: cell-based, human
Procedure: The cell aggregates were cultured in HGF, Dex and OSM until day 32 at which point cAMP was added. […] In some experiments, HGF was also removed from the cultures when cAMP analog and/or cAMP agonist is added.

[2] = OP9 co-culture with HGF, EGF, TGFβ1

Molecule: Cc1cccc(-c2nn(C(=S)Nc3ccccc3)cc2-c2ccnc3ccccc23)n1 [A83-01]
inhibition of smad2, relative potency (smad2): more potent

Molecule: O=C1Nc2cc(Br)ccc2/C1=C1/Nc2ccccc2/C1=N\O [BIO, 6-bromo-Indirubin-3′-Oxime]
pluripotency of ESC (human and mouse ESC): maintain pluripotency

expression of hepatocyte markers (ALB, AFP and CYP3A7) (Notch signaling; day 44): increase
Molecule: CC(C)C[C@H](NC(=O)[C@H](Cc1ccccc1)C[C@@H](O)[C@H](Cc1ccccc1)NC(=O)OC(C)(C)C)C(=O)N[C@@H](Cc1ccccc1)C(N)=O [GSI]
albumin and CK19 positive cells (Notch pathway; 10 μM, H9-derived day 27 progenitors with OP9, HGF 20 ng/ml, EGF 50 ng/ml): albumin and CK19 positive cells were found | ALB expression (Notch pathway; [2]): blocked the downregulation | development of branched structures (Notch pathway; [2]): inhibited | proportion of CK19+ cells (Notch pathway; [2]): reduced | increase in expression of Notch targets HES1, HES5 and HEY1 (Notch pathway; nine days of culture on OP9): block | formation of duct-like structures and cysts (Notch signaling): prevented | expression of genes associated with cholangiocyte development (CK19, Sox9 and CFTR) (Notch signaling; day 44): decrease

Molecule: O=C(NOC[C@H](O)CO)c1ccc(F)c(F)c1Nc1ccc(I)cc1F [MEK/ErK inhibitor]
levels of CYP3A4 expression (day 44 aggregates): comparable to those found in the adult liver

increase in CYP1A2 activity on induction (CYP1A2; 8-Br-cAMP-treated hESC-derived cells, induction 72 hours): 3.4 fold | inducibility of CYP1A2 activity (CYP1A2; H9-derived cells): inducible | inducibility of CYP1A2 activity (CYP1A2; cells not treated with 8-Br-cAMP): not inducible | inducible CYP1A2 activity (CYP1A2; iPSC-derived cells): not detectable | induction of CYP1A2 activity (CYP1A2; two independent primary hepatocyte samples): 18 fold and 9 fold
Molecule: Cc1c(OCC(F)(F)F)ccnc1C[S+]([O-])c1nc2ccccc2[nH]1 (stereo not drawn) [lansoprazole]

Molecule: HGF: hepatocyte growth factor
development of CK19+ clusters [1]: little effect | survival of aggregates (hepatic aggregates; 10 ng/ml (reduced from 20 ng/ml) when cAMP was added): promote survival of the aggregates

Molecule: OSM: Oncostatin M
induction of expression of Phase 1 CYP enzymes, in particular CYP 3A4 (hepatic aggregates; OSM maintained): inhibitory effect

Molecule: TGFβ1: transforming growth factor beta 1
development of CK19+ clusters [1]: increase in the size | cholangiocyte branching ([1]; hepatoblasts co-cultured with OP9): promotes cholangiocyte branching

— patent publication US12129490B2, “Methods for generating hepatocytes and cholangiocytes from pluripotent stem cells” (UNIVERSITY HEALTH NETWORK, priority 2018, dated 2024)
